US9827246B2, “Biomarkers of response to NAE inhibitors” (Millennium Pharmaceuticals, Inc., priority 2011, dated 2017)

How the values were obtained:
Format in all cases: cell-based
AsPC-1 = test: Panel 1 cell viability screen; conditions: FBXW7 mutant
Experimental: (§1) To support clinical development and identify potential biomarkers of tumor sensitivity or resistance, two large cancer cell line panels (Panel 1, N=653 (McDermott et al. (2007) PNAS 104:19936-19941); Panel 2, N=240 (O'Day et al. (2010) Fourth AACR International Conference on Molecular Diagnostics in Cancer Therapeutic Development)) were treated with MLN4924 and cell viability data (IC50, EC50, and POC—Percentage of Control) were generated.
(§2) Panel 1 (McDermott et al., supra). The cell lines were exposed to three MLN4924 concentrations (20 nM, 200 nM, and 2 μM) for 72 hours. Viability, i.e., cell number, was quantified by measuring fluorescence of a cell-permeant nucleic acid stain. Mean of triplicate values for each sample were taken and compared to DMSO control to calculate percentage of control. In the results, control or no activity value is given a value of about 1, sensitivity is indicated by a value less than 1, with 0 as death of the entire cell population and resistance indicated by a value greater than 1. A continuum of viability values was obtained for each concentration, so some values were selected as cut-offs for final determination of sensitivity or resistance. For example, median POC values of less than the median value of all POC's recorded in the panel (<0.34) indicated sensitivity, values of 0.34 to 0.75 indicated borderline sensitivity, values greater than the 3rd quartile of all POC's in the panel (>0.75) insensitivity or resistance. […] Final judgment of cell line as sensitive, insensitive or resistant was determined by its viability at 2 μM.

BxPC-3 = test: Panel 1 cell viability screen; conditions: SMAD4 mutant
Experimental: as §1, §2

CAPAN-1 = test: Panel 1 cell viability screen; conditions: SMAD4 mutant
Experimental: as §1, §2

CFPAC-1 = test: Panel 1 cell viability screen; conditions: SMAD4 mutant
Experimental: as §1, §2

COCM1 = test: Panel 1 cell viability screen; conditions: CoCM-1; SMAD4 mutant
Experimental: as §1, §2

COLO-678 = test: Panel 1 cell viability screen; conditions: SMAD4 mutant
Experimental: as §1, §2

HT29 = test: Panel 1 cell viability screen; conditions: HT-29; SMAD4 mutant
Experimental: as §1, §2

MDA-MB-231 = test: Panel 1 cell viability screen; conditions: NF2 mutant
Experimental: as §1, §2

MKN1 = test: Panel 1 cell viability screen; conditions: FBXW7 mutant
Experimental: as §1, §2

MKN45 = test: Panel 1 cell viability screen; conditions: SMAD4 mutant
Experimental: as §1, §2

PANC-08-13 = test: Panel 1 cell viability screen; conditions: SMAD4 mutant
Experimental: as §1, §2

RCM-1 = test: Panel 1 cell viability screen; conditions: FBXW7 mutant
Experimental: as §1, §2

S-117 = test: Panel 1 cell viability screen; conditions: NF2 mutant
Experimental: as §1, §2

SW 1463 = test: Panel 1 cell viability screen; conditions: SW1463; FBXW7 mutant
Experimental: as §1, §2

SW620 = test: Panel 1 cell viability screen; conditions: SMAD4 mutant
Experimental: as §1, §2

UMC-11 = test: Panel 1 cell viability screen; conditions: SMAD4 mutant
Experimental: as §1, §2

NCI-H520 = test: Panel 2 high-content cell screen; conditions: Homo sapiens, 72 h, cell number
Experimental: as §1
(§3) Panel 2 (Ricerca Biosciences, Inc., Bothell, Wash.). MLN4924 was added in half-log dilutions for 10 concentrations and treated for 72 hours. High-content cell screening by fluorescence microscopy included image analysis to generate several types of data. Results included EC50 values (after measurement of cell numbers, the EC50 concentration was calculated from the inflection point of a curve of percent of control (POC) against log of MLN4924 concentration), IC50 values (from the POC-log MLN4924 plot, IC50 is the concentration at 50% maximal possible response), apoptosis (measurement of activation of caspase 3 plotted against log of MLN4924 concentration, determined as the concentration for >5 fold induction), and mitotic activity (determined by measuring the fold increase of phospho-histone 3). A comparison of EC50 to IC50 (FIG. 3) allowed assignment of cell lines to sensitive, insensitive or resistant. Final identification of a cell line as sensitive or resistant was based on the EC50 values. The cutoff for sensitivity is a median EC50 of less than the median value of all POC's recorded in the panel (<0.36), borderline sensitivity was associated with median EC50 of 0.36 to 1.67 and insensitive or resistant cell lines were identified by EC50 greater than the 3rd quartile of all POC's in the panel (>1.67).

SK-OV-3 = test: Panel 2 high-content cell screen; conditions: Homo sapiens, 72 h, cell number
Experimental: as §1, §3

SW 1116 = test: Panel 2 high-content cell screen; conditions: Homo sapiens, 72 h, cell number
Experimental: as §1, §3

[1] = test system: p21 in TP53−/− HCT-116 cells; test: Western blots of p21

NS(=O)(=O)OC[C@@H]1C[C@@H](n2ccc3c(N[C@H]4CCc5ccccc54)ncnc32)C[C@@H]1O [MLN4924, ((1S,2S,4R)-4-{4-[(1S)-2,3-dihydro-1H-inden-1-ylamino]-7H-pyrrolo[2,3-d]pyrimidin-7-yl}-2-hydroxycyclopentyl)methyl sulphamate]
0.261 µM: EC50 (NCI-H520)
still up-regulated: p21 (Western blots) [1]
≥ 10 µM: EC50 (SK-OV-3) | EC50 (SW 1116)
insensitive: Phenotype (BxPC-3) | Phenotype (HT29) | Phenotype (MDA-MB-231) | Phenotype (MKN1) | Phenotype (MKN45) | Phenotype (SW620) | Phenotype (UMC-11)
resistant: Phenotype (AsPC-1) | Phenotype (COCM1) | Phenotype (COLO-678) | Phenotype (PANC-08-13) | Phenotype (RCM-1) | Phenotype (S-117) | Phenotype (SW 1463)
sensitive?: Phenotype (CAPAN-1) | Phenotype (CFPAC-1)
